This experiment has as its system retinal epithelial progenitor cells. As to the kind of experiment: Derivation of retinal pigmented epithelium from hPSCs in 3D culture. Format: cell-based, human. The settings on record: hPSC 3D cultures, N2/B27 medium containing Chir99021 (3 μM) for 15 days, after 12 days SB431542, IWR-1, DMH-1, Y-27632. The protocol:
hPSCs cells growing under feeder-free culture conditions were dissociated with Accutase and grown in suspension in Ultra-low 6 well plates, with N2/B27 medium (DMEM/F12 with GlutaMAX, 1× N2/B27 Supplement) plus SB431542 (10 μM), IWR-1 (3 μM), DMH-1 (2 μM), and Y-27632 (10 μM) for 12 days (FIGS. 1A-1C) to generate retinal epithelial progenitor cells. After 12 days, to differentiate the retinal epithelial progenitor cells into retinal pigmented epithelium into RPEs, hPSC 3D cultures were switch into N2/B27 medium containing Chir99021 (3 μM) for 15 days (FIGS. 1A-1C and 2). […] Derivation of RPEs was confirmed by immunohistochemistry for RPE specific protein expression (MITF, ZO-1, Best-1 and Melanosome) and by RT-PCR gene analysis for RPE specific gene markers ([…], BEST1 OTX2, RLBP1, RPE65 and SERINF1) (FIGS. 3 and 4). FACS analysis was performed to determine the percentage of cells positive for RPE specific proteins MITF, Mel and BEST (FIGS. 5A-5C).

The text below walks through data of patent publication US20200024573A1, “CHEMICAL DIFFERENTIATION OF PLURIPOTENT STEM CELLS INTO RETINAL EPITHELIAL CELLS” (International Stem Cell Corporation, priority 2014, published 2020).

Each structure is given as a SMILES string.

In the case of `Cc1c[nH]c(-c2cnc(NCCNc3ccc(C#N)cn3)nc2-c2ccc(Cl)cc2Cl)n1` [Chir99021], the “maturation/pigmentation of retinal epithelial progenitor cells” value was “promotes the maturation/pigmentation of retinal epithelial progenitor cells”.
